What all share (assay type): in vivo, human
Data set [1] is described as follows: Example 2: effect of a 400 mg single dose of ketoconazole on PK of an 8-day regimen of 300 mg or 600 mg OD mifepristone, moderate fat breakfast. The procedure: This was an open-label study in healthy male subjects. […] The 400 mg single dose of ketoconazole was given to all subjects on day 8.
METHODOLOGY: Twelve subjects were enrolled, six in Cohort 1 and 6 in Cohort 2.
Subjects were discharged on Day 11.
Subjects were discharged on Day 11. Subjects in both cohorts returned to study center on Day 13 for safety monitoring, collection of the 120-hour PK draw, and completion of the Termination Visit procedures, followed by discharge from the study. To the extent possible, any adverse events deemed study drug-related and that were ongoing at the time of discharge from the study were followed-up to resolution or until a determination was made that the unresolved event was stable.
DIAGNOSIS AND MAIN […] FOR INCLUSION: Healthy male volunteers between the ages of 18 to 45 years of age with a body mass index (BMI) ranging between 19 and 32 kg/m2 and a weight of at least 60 kg (132 lbs) were enrolled. Subjects had no clinically significant abnormal findings on the physical examination, ECG, blood pressure, heart rate, medical history, or clinical laboratory results during screening. The QTc interval at screening was less than 450 msec.
DURATION OF TREATMENT: Up to a total of 28 days, including up to 2 weeks screening, dosing on Days 1-8, safety observation, and PK sample collection through Day 13.
Additionally, comparisons were made between the PK results of cohort 1 and 2. Pharmacokinetic parameters Cmax, T1/2 and total AUC were calculated for plasma concentrations of ketoconazole following the single dose on Day 8. Descriptive statistics (count, mean, median, standard deviation, minimum, maximum, and % coefficient of variation) were provided. Ketoconazole concentrations were listed and summarized. GM means of Cmax and total AUC were compared for the single dose in this study to the combined data of reported 400 mg single doses of ketoconazole of healthy subjects from the literature.

Data set [2] in a line: Example 3: Phase 1 study of ketoconazole 200 mg twice daily with mifepristone 600 mg once daily with food, plasma PK incl. cross-study comparison. The note with it: for mean increase / change in exposure on co-administration with ketoconazole: 600 mg mifepristone once daily with 200 mg ketoconazole twice daily; for effect of ketoconazole on exposure (90% CI vs standard 80:125 interval): Day 17 vs Day 12; for concentrations on Day 17 compared with Day 12: Day 17 with 200 mg ketoconazole twice daily, Day 12 mifepristone alone; for AUC0-24 Ratio % Test/Ref (cross-study, geometric mean ratio) / Cmax Ratio % Test/Ref (cross-study, geometric mean ratio): Test: Present Study Day 17 600 mg mifepristone OD + 200 mg Ketoconazole BID, Reference: Historic Study Day 7 1200 mg mifepristone OD alone, after 34% fat meal.

Data set [3] in a line: Example 1: safety (adverse events, laboratory tests, ECG). The note with it: mifepristone 300 mg single dose with ketoconazole for 14 days. The procedure: In cohort 1, six subjects received ketoconazole 400 mg OD for 14 days.
In cohort 2, six subjects received ketoconazole 200 mg BID for 14 days. […] All 12 subjects completed the study. Cohort 2 subjects participated in a Screening visit to assess eligibility and a check-in Day (Day −1) during which eligibility was re-confirmed. […] The evening of Day 1, subjects received 200 mg oral ketoconazole. Subjects remained in the clinic on Days 2, 3 and 4 to receive 200 mg BID oral ketoconazole, and for safety evaluation and collection of blood pharmacokinetic (PK) samples. Subjects were discharged from the clinic on Day 4 following evening administration of 200 mg oral ketoconazole, and returned to the clinic the morning and evening of Days 5 through 13 to receive 200 mg BID oral ketoconazole. Morning doses of ketoconazole on Days 0-13 were administered in the fasted state.
Subjects in both cohorts returned to the study center on Day 15 for safety monitoring, and completion of the Termination Visit procedures, followed by discharge from the study. Safety was assessed by spontaneously reported adverse events, physical examinations, and routine clinical laboratory tests. To the extent possible, any adverse events deemed study drug-related and that were ongoing at the time of discharge from the study were followed-up to resolution or until a determination is made that the unresolved event was stable.

The mark [4] stands for this setting: Test: Day 17 600 mg mifepristone OD + 200 mg Ketoconazole BID, Reference: Day 12 600 mg mifepristone OD.
Setting [5] is: single 400 mg ketoconazole dose on Day 8.
Setting [6] is: 400 mg ketoconazole (200 mg twice per day) concomitantly with 600 mg mifepristone per day, fifth day.
[7] abbreviates: Test: Day 17 600 mg mifepristone OD + 200 mg Ketoconazole BID, Reference: Day −1 200 mg Ketoconazole Single Dose.

The values below come from patent US20170281651A1, “CONCOMITANT ADMINISTRATION OF GLUCOCORTICOID RECEPTOR MODULATORS AND CYP3A OR STEROIDOGENESIS INHIBITORS” (Corcept Therapeutics, Inc., priority 2017, published 2017).

Consider `CN(C)c1ccc([C@H]2C[C@@]3(C)[C@@H](CC[C@@]3(O)C#CCO)[C@@H]3CCC4=CC(=O)CCC4=C32)cc1` [RU 42698, (8S,11R,13S,14S,17S)-11-[4-(dimethylamino)phenyl]-17-hydroxy-17-(3-hydroxyprop-1-ynyl)-13-methyl-1,2,6,7,8,11,12,14,15,16-decahydrocyclopenta[a]phenanthren-3-one], for which the “mean metabolite exposure compared with mifepristone” value in data set [1] (300 or 600 mg OD mifepristone, Days 7-13) was “lower”. Moreover, in data set [2], the “mean increase / change in exposure on co-administration with ketoconazole” value (from here on “mean increase / change in exposure”) is reported as “approximately 70%”; the “effect of ketoconazole on exposure (90% CI vs standard 80:125 interval)” value (“effect … (90% CI vs standard 80:125 interval)” for short) was “increased”; the “concentrations on Day 17 compared with Day 12” value was “higher”; the “AUC0-24 Ratio % Test/Ref (cross-study, geometric mean ratio)” value was 118.18%. Also, the “Cmax Ratio % Test/Ref (cross-study, geometric mean ratio)” value in data set [2] was found to be 116.55%. Also, in data set [2] (setting [4]), the “AUC0-24 Ratio % Test/Reference (geometric mean ratio)” value (from here on “AUC0-24 Ratio % Test/Reference”) came out at 166.86% and the “Cmax Ratio % Test/Reference (geometric mean ratio)” value (“Cmax Ratio % Test/Reference” for short) is recorded as 169.13%. In data set [2] (in the presence of ketoconazole), the “share of total steady-state AUC0-24 of mifepristone, RU42633, RU42698, RU42848” value was 13%. Further, the “share of total steady-state AUC0-24 of mifepristone, RU42633, RU42698, RU42848” value in data set [2] (mifepristone alone) was found to be 9%.
As to `CC#C[C@]1(O)CC[C@H]2[C@@H]3CCC4=CC(=O)CCC4=C3[C@@H](c3ccc(N)cc3)C[C@@]21C` [RU 42848, (8S,11R,13S,14S,17S)-11-(4-aminophenyl)-17-hydroxy-13-methyl-17-prop-1-ynyl-1,2,6,7,8,11,12,14,15,16-decahydrocyclopenta[a]phenanthren-3-one], in data set [2], the “mean increase / change in exposure” value was “little change”; the “effect … (90% CI vs standard 80:125 interval)” value is reported as “not affected”; the “concentrations on Day 17 compared with Day 12” value is on record as “similar”; the “AUC0-24 Ratio % Test/Ref (cross-study, geometric mean ratio)” value was 81.43%. The “Cmax Ratio % Test/Ref (cross-study, geometric mean ratio)” value in data set [2] is on record as 82.45%. Besides, in data set [2] (setting [4]), the “AUC0-24 Ratio % Test/Reference” value turned out to be 94.88% and the “Cmax Ratio % Test/Reference” value amounted to 95.48%.
In the case of `CC#C[C@]1(O)CC[C@H]2[C@@H]3CCC4=CC(=O)CCC4=C3[C@@H](c3ccc(NC)cc3)C[C@@]21C` [RU 42633, (8S,11R,13S,14S,17S)-17-hydroxy-13-methyl-11-[4-(methylamino)phenyl]-17-prop-1-ynyl-1,2,6,7,8,11,12,14,15,16-decahydrocyclopenta[a]phenanthren-3-one], in data set [2], the “mean increase / change in exposure” value was “little change”; the “effect … (90% CI vs standard 80:125 interval)” value is “not affected”; the “concentrations on Day 17 compared with Day 12” value is “similar”; the “AUC0-24 Ratio % Test/Ref (cross-study, geometric mean ratio)” value is on record as 91.34%. Further, the “Cmax Ratio % Test/Ref (cross-study, geometric mean ratio)” value in data set [2] was determined as 96.31%. Besides, in data set [2] (setting [4]), the “AUC0-24 Ratio % Test/Reference” value came out at 102.33% and the “Cmax Ratio % Test/Reference” value turned out to be 105.73%.
Take `CC(=O)N1CCN(c2ccc(OCC3COC(Cn4ccnc4)(c4ccc(Cl)cc4Cl)O3)cc2)CC1` (centres unmarked) [ketoconazole, 1-acetyl-4-[4-[[2-(2,4-dichlorophenyl)-2-[(1H-imidazol-1-yl)-methyl]-1,3-dioxolan-4-yl]methoxy]phenyl]piperazine]: in data set [1] (setting [5]), the “AUCinf higher on 600 mg OD mifepristone regimen relative to 300 mg OD” value is listed as 36% and the “Cmax higher on 600 mg OD mifepristone regimen relative to 300 mg OD” value turned out to be 37%. Also, the “half-life on either mifepristone regimen” value in data set [1] (single 400 mg ketoconazole dose on Day 8, mifepristone 300 vs 600 mg OD) is “not appreciably different”. Also, in data set [2] (setting [6]), the “increase in ketoconazole AUC” value came to 253% and the “increase in ketoconazole Cmax” value was found to be 365%. In data set [2] (setting [7]), the “AUC Ratio % Test/Reference (geometric mean ratio)” value is listed as 365.36% and the “Cmax Ratio % Test/Reference” value amounted to 252.71%. In addition, the “TEAEs considered by the investigator to be related to the drug” value in data set [3] was “One TEAE of insomnia”.
